These results are taken from ChEMBL document CHEMBL4699480 (J Med Chem, 2020).

The source made the active and inactive calls. The rule behind the calls is not given here.

The nature of assay [1]: Inhibition of Mycobacterium tuberculosis WecA.
Assay [2] in a line: Inhibition of N-terminal 6x-His-tagged Hydrogenivirga-sp. 128-5-R1-1 MraY expressed in Escherichia coli NiCo21(DE3) incubated for 2 hrs by reversed-phase HPLC analysis.
The nature of assay [3]: Inhibition of Escherichia coli WecA incubated for 2 hrs using UDP-Glucosamine-C6-FITC substrate by reversed-phase HPLC analysis. On the set-up: species or system Escherichia coli BL21.
The nature of assay [4]: Inhibition of N-terminal His9-tagged Methanocaldococcus jannaschii DSM 2661 AglH incubated for 2 hrs using UDP-GlcN-Cg-FITC and alpha-dihydroundecap-renyl phosphate by reversed-phase HPLC analysis.
For assay [5], the target named is T1, UDP-N-acetylglucosamine--dolichyl-phosphate N-acetylglucosaminephosphotransferase (Homo sapiens, UniProt Q9H3H5).
T1 sequence (Q9H3H5 whole entry): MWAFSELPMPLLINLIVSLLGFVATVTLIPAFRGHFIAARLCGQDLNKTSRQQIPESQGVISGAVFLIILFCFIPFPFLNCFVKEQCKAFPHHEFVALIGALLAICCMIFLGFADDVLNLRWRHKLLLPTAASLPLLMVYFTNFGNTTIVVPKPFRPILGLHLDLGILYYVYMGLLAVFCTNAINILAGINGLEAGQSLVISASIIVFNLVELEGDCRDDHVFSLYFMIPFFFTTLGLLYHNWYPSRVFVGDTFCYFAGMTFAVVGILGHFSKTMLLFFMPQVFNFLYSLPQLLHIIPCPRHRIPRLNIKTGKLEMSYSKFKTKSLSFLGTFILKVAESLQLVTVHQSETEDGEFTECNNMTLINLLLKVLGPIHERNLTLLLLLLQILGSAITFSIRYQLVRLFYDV
The experiment in a line: Inhibition of human DPAGT1 expressed in HEK293 (Expi293) cells incubated for 2 hrs using UDP-GlcN-Cg-FITC and alpha-dihydroundecap-renyl phosphate by reversed-phase HPLC analysis. The format is cell-based.

Assay [6] is described as follows: Inhibition of Mycobacterium tuberculosis WecA by fluorescence based assay.
In assay [7] the test system is KB. Nature of the assay: Cytotoxicity in human KB cells assessed as reduction in cell viability incubated for 72 hrs by MTT assay. The format is functional, cell-based. For orientation: Tetrazolium dyes change colour on reduction, which living cells bring about.
Assay [8] deals with SiHa. Nature of the assay: Cytotoxicity in human SiHa cells assessed as reduction in cell viability incubated for 72 hrs by MTT assay. The format is functional, cell-based.
Assay [9] concerns HCT-116. Nature of the assay: Cytotoxicity in human HCT-116 cells assessed as reduction in cell viability incubated for 72 hrs by MTT assay. The format is functional, cell-based. The conditions noted are these: HCT-116, 72 h.
Assay [10] concerns DLD-1. Nature of the assay: Cytotoxicity in human DLD-1 cells assessed as reduction in cell viability incubated for 72 hrs by MTT assay. The format is functional, cell-based. The conditions noted are these: DLD-1, 72 h.
In assay [11] the test system is CAPAN-1. The experiment in a line: Cytotoxicity in human CAPAN-1 cells assessed as reduction in cell viability incubated for 72 hrs by MTT assay. The format is functional, cell-based. Particulars: CAPAN-1, 72 h.
For assay [12], the system named is PANC-1. Nature of the assay: Cytotoxicity in human PANC-1 cells assessed as reduction in cell viability incubated for 72 hrs by MTT assay. The format is functional, cell-based. The conditions noted are these: PANC-1, 72 h.
Assay [13] has as its system ASPC1. Nature of the assay: Cytotoxicity in human ASPC1 cells assessed as reduction in cell viability incubated for 72 hrs by MTT assay. The format is functional, cell-based. Particulars: ASPC1, 72 h.
Assay [14] in a line: Cytotoxicity in human PD002 cells assessed as reduction in cell viability incubated for 72 hrs by MTT assay. It counts as functional, cell-based. Particulars: PD002, 72 h.
Assay [15] is described as follows: Cytotoxicity in human hTERT-HPNE cells assessed as reduction in cell viability incubated for 72 hrs by MTT assay. It counts as cell-based.
For assay [16], the system named is Vero. The experiment in a line: Cytotoxicity in African green monkey Vero cells assessed as reduction in cell viability incubated for 72 hrs by MTT assay. The format is cell-based. Particulars: Chlorocebus sabaeus.
A short description of assay [17]: Cytotoxicity in mouse L1210 cells assessed as reduction in cell viability incubated for 72 hrs by MTT assay. The conditions noted are these: L1210, 72 h.
The test system of assay [18] is PD002. Nature of the assay: Inhibition of cell migration in human PD002 cells at 0.1 uM incubated for 0.5 hrs by crystal violet staining based Boyden chamber assay. The format is functional.

As a reminder, the IC50 is the concentration that gives 50% inhibition. In assay [1], `CCCCc1ccc(NC(=O)C2=CCN(C)[C@@H]([C@H](O[C@@H]3O[C@H](CN)[C@@H](O)[C@H]3O)[C@H]3O[C@@H](n4ccc(=O)[nH]c4=O)[C@H](O)[C@@H]3O)C(=O)N2C)cc1` came in with an IC50 of 0.084 µM.

As to `CO[C@H]1[C@@H](O)[C@H](n2ccc(=O)[nH]c2=O)O[C@@H]1[C@@H](O[C@H]1OC(CNCc2ccc(N3CCC(Oc4ccc(OC(F)(F)F)cc4)CC3)cc2)=C[C@H](O)[C@@H]1O)C(N)=O`, the half-inhibitory concentration (IC50) in assay [2], in [3], in assay [4] and in [5] was greater than 50 µM in each case.

`NC(=O)[C@H](O[C@H]1OC(C(=O)N[C@H]2CCCCNC2=O)=C[C@H](O)[C@@H]1O)[C@H]1O[C@@H](n2ccc(=O)[nH]c2=O)[C@H](O)[C@@H]1O`: the half-maximal inhibitory concentration (IC50) in assay [2] was greater than 50 µM; in [3], 35 µM; in assay [4], greater than 50 µM; in assay [5] it was greater than 50 µM.

Regarding `NC[C@H]1O[C@@H](O[C@H]([C@H]2O[C@@H](n3ccc(=O)[nH]c3=O)[C@H](O)[C@@H]2O)[C@H](NCCCC(=O)NCc2ccc(N3CCC(Oc4ccc(OC(F)(F)F)cc4)CC3)cc2)C(N)=O)[C@H](O)[C@@H]1O`, the IC50 in assay [2], in assay [3], in assay [4] and in assay [5] was 0.01 µM in each case.

`CO[C@@H]1[C@H](O)[C@@H]([C@@H](O[C@H]2OC(CNCc3ccc(N4CCC(Oc5ccc(OC(F)(F)F)cc5)CC4)cc3)=C[C@H](O)[C@@H]2O)C(N)=O)O[C@H]1n1ccc(=O)[nH]c1=O`: the IC50 in [2], in assay [3], in assay [4] and in assay [5] was greater than 50 µM each time.

As to `NC(=O)[C@H](O[C@H]1OC(C(=O)NCc2ccc(N3CCC(Oc4ccc(OC(F)(F)F)cc4)CC3)cc2)=C[C@H](O)[C@@H]1O)[C@H]1O[C@@H](n2ccc(=O)[nH]c2=O)[C@H](O)[C@@H]1O`, the IC50 in assay [2] is greater than 50 µM; in assay [3] it was 30 µM; in [4] it was greater than 50 µM; in [5] it was greater than 50 µM.

For the compound `CO[C@H]1[C@@H](OC)[C@H](n2ccc(=O)[nH]c2=O)O[C@@H]1[C@@H](O[C@H]1OC(C(=O)N[C@H]2CCCCNC2=O)=C[C@H](O)[C@@H]1O)C(N)=O`, the concentration for half-maximal inhibition (IC50) was greater than 50 µM in assay [2]; 0.06 µM in assay [6]; 0.06 µM in assay [3]; 2.5 µM in assay [4]; 4.5 µM in assay [5]; greater than 50 µM in assay [7]. The IC50 in assay [8], in [9], in assay [10], in assay [11], in [12] and in assay [13] was greater than 50 µM throughout. The half-maximal inhibitory concentration (IC50) in [14], in [15], in assay [16] and in [17] was greater than 50 µM each time.

Regarding `CO[C@@H]1[C@H](O)[C@@H]([C@@H](O[C@H]2OC(C(=O)N[C@H]3CCCCNC3=O)=C[C@H](O)[C@@H]2O)C(N)=O)O[C@H]1n1ccc(=O)[nH]c1=O`, the IC50 in assay [2] amounted to 8.5 µM; in assay [3], 30 µM; in assay [4] it was 20 µM; in assay [5], 11.5 µM.

With `Nc1ccn([C@@H]2O[C@H](CO)[C@@H](O)C2(F)F)c(=O)n1`, the inhibition result in [18] was “Active”.

Regarding `CO[C@@H]1[C@H](O)[C@@H]([C@@H](O[C@H]2OC(C(=O)NCc3ccc(N4CCC(Oc5ccc(OC(F)(F)F)cc5)CC4)cc3)=C[C@H](O)[C@@H]2O)C(N)=O)O[C@H]1n1ccc(=O)[nH]c1=O`, the IC50 in [2] is greater than 50 µM; in assay [3], 20 µM; in [4], 15 µM; in assay [7], 35 µM; in assay [8], 25 µM; in assay [9], 25 µM. Besides, the half-inhibitory concentration (IC50) was 35 µM in assay [10]; 40 µM in assay [11]; 45 µM in assay [12]; 30 µM in assay [13]; 50 µM in assay [14]; greater than 50 µM in assay [15]. The half-maximal inhibitory concentration (IC50) in assay [16] and in assay [17] was greater than 50 µM each time.

For `CO[C@H]1[C@@H](OC)[C@H](n2ccc(=O)[nH]c2=O)O[C@@H]1[C@@H](O[C@H]1OC(C(=O)NCc2ccc(N3CCC(Oc4ccc(OC(F)(F)F)cc4)CC3)cc2)=C[C@H](O)[C@@H]1O)C(N)=O`, the IC50 stood at 5 µM in [2], 10 µM in [3], 30 µM in assay [4] and 20 µM in [5].

Turning to `CO[C@H]1[C@@H](O)[C@H](n2ccc(=O)[nH]c2=O)O[C@@H]1[C@@H](O[C@H]1OC(C(=O)N[C@H]2CCCCNC2=O)=C[C@H](O)[C@@H]1O)C(N)=O` [CAPURAMYCIN], the half-maximal inhibitory concentration (IC50) in [2] is 0.13 µM; in assay [3], greater than 50 µM; in assay [4] it was greater than 50 µM; in [5] it was greater than 50 µM; in [7] it was greater than 50 µM; in [8], greater than 50 µM. In addition, the IC50 in assay [9], in [10], in [11], in assay [12], in [13] and in assay [14] was greater than 50 µM throughout. The IC50 in assay [15], in assay [16] and in assay [17] was greater than 50 µM each time.
